Source: patent US20260083701A1, “COMPOSITIONS, FORMULATIONS, AND METHODS FOR TREATMENT OF INFLAMMATORY CONDITIONS” (Oddity Labs, LLC, priority 2023, published 2026)

Assays:
[1] = test system: IL-4; assay: Functional Th2-blocking activity: IL-4 expression in primary human Th2 cells (intracellular flow cytometry); type: cell-based; conditions: primary human CD4+ Th2 cells; for % Normalized Reduction of Cytokine Expression From Baseline in CD4+ T Cells IL-4: normalized against vehicle control (water), 3 days co-culture, PMA/ionomycin 6 hours; for Expression of Cytokine following Stimulation (% X Positive among CD4+ T cells) IL-4: 3 days co-culture with compound, PMA/ionomycin stimulation 6 hours
From the text: (§1) To produce T helper 2 (Th2) cells, peripheral blood mononuclear cells (PBMCs) were harvested from healthy donor leukopaks using Ficoll gradients. Naive CD4+ T cells were further isolated, then activated using TransAct or Dynabeads (depending on the donor). CD4+ T cells were activated for two days in the presence of low dose IL-2 (30 IU/mL) in X-VIVO-15 media containing 5% human AB serum (activation cycle). On the second day, the media was exchanged and supplemented with interleukin 4 (IL-4) (20 ng/mL), anti-IFN-gamma antibody (1 μg/mL), and interleukin 2 (IL-2) (rest cycle). The cells were cultured for an additional five days then evaluated for Prostaglandin D2 receptor 2 (DP2 or CRTH2) expression and IL-4 and interleukin 13 (IL-13) expression following phorbol myristate acetate (PMA)/ionomycin stimulation. If the expression of CRTH2 was >50%, the cells were frozen and used in Th2 IL-4/IL-13 bioactivity assays. If the expression of CRTH2 <50%, then the cells were restimulated using TransAct (or Dynabeads) and maintained on similar cycles of activation (2 days) and rest (5 days), until the expression of CRTH2 exceeded 50%. Typically, no more than 4 cycles are needed before the Th2 cells may be harvested and frozen.
(§2) For testing the ability of a compound or salt of the present disclosure to reduce the expression of IL-4 and IL-13 was tested in primary human Th2 cells, the abovementioned cells were thawed, then cultured for one day in IL-2 containing media. The Th2 cells were treated with compounds added at varying concentrations for three days, after which, the cells were washed, and stimulated with PMA/ionomycin for 6 hrs prior to readabout via intracellular flow cytometry.
(§3) The ability of a compound or salt of the present disclosure to reduce the expression of IL-4 and IL-13 was tested in primary human Th2 cells. Naive, primary human CD4+ T cells were isolated from healthy donors and differentiated into Th2 cells using a combination of IL-4 cytokine and anti-IFN-gamma antibody, based on a modified protocol from Scott et al (Activation of Th2 cells downregulates CRTh2 through an NFAT1 mediated mechanism. PLoS One. 2018 Jul. 3; 13(7):e0199156). Th2 cells were CRTH2+ and expressed IL-4 and IL-13 following PMA/ionomycin stimulation. Prior to PMA/ionomycin stimulation, Th2 cells were co-cultured with a compound or salt of the present disclosure for 3 days and then stimulated for 6 hours. Intracellular flow cytometry was performed to investigate the expression of IL-4 and IL-13 among stimulated CD4+ Th2 cells. The compound or salt was evaluated across a 2-log concentration range. Th2 cells were cultured in X-VIVO-15 media with human AB serum and supplemented with low dose IL-2 (30 IU/mL). The antibody panel that was used is listed below. All antibodies were obtained from Biolegend.
(§4) Description of Calculation for: (1) Expression of Cytokine following Stimulation (% X Positive among CD4+ T cells), and (2) % Normalized Reduction of Cytokine Expression From Baseline in CD4+ T Cells
(§5) The expression of IL-4 and IL-13 was measured based on positive gated fractions among CD4+ Th2 cells. The number is expressed as a positive percentage, determined based on the fluorescence-minus-one (FMO) control. The max percent is 100%. The normalized reduction value uses the vehicle control (water) to normalize against using the following percent change formula. (Cmpd: compound)

[2] = test system: IL-13; assay: Functional Th2-blocking activity: IL-13 expression in primary human Th2 cells (intracellular flow cytometry); type: cell-based; conditions: for Expression of Cytokine following Stimulation (% X Positive among CD4+ T cells) IL-13: 3 days co-culture with compound, PMA/ionomycin stimulation 6 hours; for % Normalized Reduction of Cytokine Expression From Baseline in CD4+ T Cells IL-13: normalized against vehicle control (water), 3 days co-culture, PMA/ionomycin 6 hours
From the text: as §1, §2, §3, §4, §5

SMILES | % Normalized Reduction of Cytokine Expression From Baseline in CD4+ T Cells IL-4 [1] | Expression of Cytokine following Stimulation (% X Positive among CD4+ T cells) IL-4 [1] | Expression of Cytokine following Stimulation (% X Positive among CD4+ T cells) IL-13 [2] | % Normalized Reduction of Cytokine Expression From Baseline in CD4+ T Cells IL-13 [2]
O=C1Cc2cc(-c3csc(Cc4ccc(F)cc4)n3)cc3c2N1CCC3 [VI-14, 8-(2-(4-fluorobenzyl)thiazol-4-yl)-5,6-dihydro-4H-pyrrolo[3,2,1-ij]quinolin-2(1H)-one] | C (C represents 20% to less than 25%) | B (B represents 30% to less than 35%) | B (B represents 10% to less than 14%) | D (D represents 50% or greater)
O=C(Cc1ncc(C(F)(F)F)cc1Cl)Nc1ccc(N2CCOCC2)cc1 [III-6, 2-[3-chloro-5-(trifluoromethyl)pyridin-2-yl]-N-[4-(morpholin-4-yl)phenyl]acetamide] | B (B represents 15% to less than 20%) | B (B represents 30% to less than 35%) | C (C represents 14% to less than 18%) | B (B represents 30% to less than 40%)
O=C(NC1CCN(C(=O)c2cn(-c3ccc(F)cc3)nn2)CC1)c1cc2ccccc2[nH]1 [VI-1, N-{1-[1-(4-fluorophenyl)-1H-1,2,3-triazole-4-carbonyl]piperidin-4-yl}-1H-indole-2-carboxamide] | D (D represents 25% or greater) | B (B represents 30% to less than 35%) | C (C represents 14% to less than 18%) | B (B represents 30% to less than 40%)
COc1ccc(-c2cc(=O)c3c(O)cc(O[C@@H]4O[C@H](CO)[C@@H](O)[C@H](O)[C@H]4O)cc3o2)cc1O [VI-12, Diosmetin-7-O-beta-D-glucopyranoside] | D (D represents 25% or greater) | A (A represents 0% to less than 30%) | A (A represents 0% to less than 10%) | D (D represents 50% or greater)
Cc1ccc(CCNC(=O)c2ccc3c(=O)n(-c4ccc(C)cc4)c(=O)[nH]c3c2)cc1 [VI-10, 3-(4-methylpheny1)-N-[2-(4-methylphenyl)ethyl]-2,4-dioxo-1,2,3,4-tetrahydroquinazoline-7-carboxamide] | C (C represents 20% to less than 25%) | B (B represents 30% to less than 35%) | C (C represents 14% to less than 18%) | B (B represents 30% to less than 40%)
O=C(NCCn1ccc2ccccc21)NC1CC(=O)N(c2cccc(F)c2)C1 (stereo not shown) [VI-2, 3-[1-(3-fluorophenyl)-5-oxopyrrolidin-3-y1]-1-[2-(1H-indol-1-yl)ethyl]urea] | D (D represents 25% or greater) | B (B represents 30% to less than 35%) | D (D represents 18% or greater) | A (A represents 0% to less than 30%)
O=C(C1CCc2cn[nH]c2C1)N1C[C@H]2CCC[C@@]2(c2nc(-c3ccccc3)no2)C1 (stereo in doubt) [IV-1, 6-[(3aS,6aS)-3a-(3-phenyl-1,2,4-oxadiazol-5-yl)-octahydrocyclopenta[c]pyrrole-2-carbonyl]-4,5,6,7-tetrahydro-1H-indazole] | C (C represents 20% to less than 25%) | B (B represents 30% to less than 35%) | C (C represents 14% to less than 18%) | C (C represents 40% to less than 50%)
